Data on eight molecules can be found in patent US4789661A, “De-(acetylglucosaminyl)-di(dehydro)-deoxy teicoplanin derivatives” (Gruppo Lepetit S.p.A., priority 1985, dated 1988).

≈ marks a conversion by molar mass, not a printed value.

Series [1] has as its system E. Coli SKF 12140. Nature of the series: In vitro antimicrobial activity (MIC), standard dilution test. Format: cell-based. To be noted: inoculum about 10^4 CFU/ml, 18-24 h at 37° C. On the procedure: (§1) Isosensitest broth (Oxoid) and Todd-Hewitt broth (Difco) are used for growing staphylococci and streptococci, respectively. Broth cultures are diluted so that the final inoculum is about 10^4 colony forming units/ml (CFU/ml).

Series [2] concerns P. vulgaris ATCC 881. Described as above. The format is cell-based. To be noted: inoculum about 10^4 CFU/ml, 18-24 h at 37° C. On the procedure: as §1
For series [3], the system named is S. aureus ATCC 6538. Described as above. Format: cell-based. To be noted: inoculum about 10^4 CFU/ml, 18-24 h at 37° C. On the procedure: as §1
Series [4] has as its system S. aureus TOUR. The description is as above. The format is cell-based. To be noted: inoculum about 10^4 CFU/ml, 18-24 h at 37° C. On the procedure:
as §1

Series [5] concerns S. epidermidis ATCC 12228. The series is described as above. To be noted: inoculum about 10^4 CFU/ml, 18-24 h at 37° C. Format: cell-based. On the procedure: as §1
The test system of series [6] is S. faecalis ATCC 7080. Described as above. To be noted: inoculum about 10^4 CFU/ml, 18-24 h at 37° C. The format is cell-based. On the procedure: as §1
Series [7] relates to S. pneumoniae UC 41. The description is as above. Format: cell-based. To be noted: inoculum about 10^4 CFU/ml, 18-24 h at 37° C. On the procedure: as §1
Series [8] concerns S. pyogenes C 203. The description is as above. The format is cell-based. To be noted: inoculum about 10^4 CFU/ml, 18-24 h at 37° C. On the procedure: as §1
Series [9] in a line: Acid-base titration (pKMCS) in 2-methoxyethanol/water 4:1. The format is physicochemical. To be noted: potentiometric; 2-methoxyethanol (Methyl Cellosolve)/water 4:1 (v/v). On the procedure: Acid-base titration (pKMCS) were carried out in 2-methoxyethanol (Methyl Cellosolve®) water 4:1 (v/v) solution, with 0.01 NaOH after addition of suitable amounts of 0.01N hcl. The equivalent weights (EW) given are corrected for the solvent content and the inorganic residue.

Series [10] deals with S. Simulans L 1142 (methicillin-resistant). Nature of the series: MIC in microtiter against coagulase-negative staphylococci, clinical isolates. To be noted: S. Simulans L 1142, methicillin-resistant clinical isolate, Iso-sensitest broth, approximately 10^4 CFU/ml. Format: cell-based. On the procedure:
(§2) In a representative experiment, compound III i.e. (35,52-di-dehydro-34-deoxy-teicoplanin aglycon) was tested against some clinically isolated coagulasenegative staphylococi. The results of the test, in comparison with teicoplanin, are reported below in Table VII, The MIC were determined in microtiter using Iso-sensitest broth (Oxoid Co.) and approximately 10^4 CFU/ml as the inoculum.

For series [11], the system named is S. epidermidis L 1378. Described as above. Format: cell-based. To be noted: S. epidermidis L 1378 clinical isolate, Iso-sensitest broth, approximately 10^4 CFU/ml. On the procedure: as §2
In series [12] the test system is S. haemoliticus L 1520 (methicillin-resistant). The description is as above. The format is cell-based. To be noted: S. haemoliticus L 1520, methicillin-resistant clinical isolate, Iso-sensitest broth, approximately 10^4 CFU/ml. On the procedure: as §2
For series [13], the system named is S. hominis L 1070. The series is described as above. The format is cell-based. To be noted: S. hominis L 1070 clinical isolate, Iso-sensitest broth, approximately 10^4 CFU/ml. On the procedure: as §2
Series [14] concerns S. simulans L 785 (methicillin-resistant). The series is described as above. The format is cell-based. To be noted: S. simulans L 785, methicillin-resistant clinical isolate, Iso-sensitest broth, approximately 10^4 CFU/ml. On the procedure:
as §2

Series [15] deals with S. warneri L 1375. Described as above. Format: cell-based. To be noted: S. warneri L 1375 clinical isolate, Iso-sensitest broth, approximately 10^4 CFU/ml. On the procedure:
as §2

Series [16] has as its system experimental infection in mice. Nature of the series: Experimental infection in mice (V. Arioli et al.). The format is in vivo. From the text:
In addition to their antibacterial activity in vitro, the compounds of the invention show also antibacterial activity in in vivo experimetns.

On to `NC1C(=O)NC2Cc3ccc(c(Cl)c3)Oc3cc4cc(c3O)Oc3ccc(cc3Cl)C=C3NC(=O)C(NC(=O)C4NC(=O)C(NC2=O)c2cc(O)cc(c2)Oc2cc1ccc2O)c1ccc(O)c(c1)-c1c(O)cc(O)cc1C(C(=O)O)NC3=O` (single isomer, unassigned) [Compound IV, (36,37-cis-51,52-trans)-34,35-didehydro-34-deoxy-teicoplanin-aglycon], for which the MIC was greater than 128 µg/mL in series [1]; 128 µg/mL (≈ 108 µM) in series [2]; 1 µg/mL (≈ 0.847 µM) in series [3]; 1 µg/mL (≈ 0.847 µM) in series [4]; 0.12 µg/mL (≈ 0.102 µM) in series [5]; 8 µg/mL (≈ 6.77 µM) in series [6]. Also, the MIC in [7] and in [8] was 4 µg/mL (≈ 3.39 µM) each time. Further, the “pKmcs (COOH)” value in series [9] is given as 4.8. The “pKmcs (NH2)” value in series [9] is reported as 7.1.
`NC1C(=O)NC2Cc3ccc(c(Cl)c3)Oc3cc4cc(c3O)Oc3ccc(cc3Cl)CC3=NC(=O)C(NC(=O)C4NC(=O)C(NC2=O)c2cc(O)cc(c2)Oc2cc1ccc2O)c1ccc(O)c(c1)-c1c(O)cc(O)cc1C(C(=O)O)NC3=O` (centres unmarked) [Compound III, 35,52-didehydro-34-deoxy-teicoplanin aglycon]: the MIC in [1] is greater than 128 µg/mL; in [2], greater than 128 µg/mL; in series [3] it was 0.25 µg/mL (≈ 0.212 µM); in series [4], 0.25 µg/mL (≈ 0.212 µM); in series [5] it was 0.12 µg/mL (≈ 0.102 µM); in series [6] it was 1 µg/mL (≈ 0.847 µM). Also, the MIC worked out at 1 µg/mL (≈ 0.847 µM) in series [7]; 1 µg/mL (≈ 0.847 µM) in [8]; 0.125 µg/mL (≈ 0.106 µM) in series [10]; 0.125 µg/mL (≈ 0.106 µM) in series [11]; 0.5 µg/mL (≈ 0.423 µM) in series [12]; 0.125 µg/mL (≈ 0.106 µM) in series [13]. For the same molecule, the MIC was 0.125 µg/mL (≈ 0.106 µM) in series [14] and 1 µg/mL (≈ 0.847 µM) in series [15]. Moreover, in [16], the ED50 amounted to 5 mg/kg.
On to teicoplanin A2 [reference compound], for which, in [9], the “pKmcs (COOH)” value is 5.0 and the “pKmcs (NH2)” value is recorded as 7.1.
“42-α-D-mannosyl-56-N-acyl-β-D-glucosaminyl-35,52-didehydro-34-d eoxy-teicoplanin aglycon [Compound I]”: the MIC in series [1] is greater than 128 µg/mL; in series [2], greater than 128 µg/mL; in series [3], 0.5 µg/mL; in [4] it was 0.5 µg/mL; in series [5], 0.25 µg/mL; in series [6], 1 µg/mL. The MIC in series [7] and in series [8] was 0.06 µg/mL each time. Further, in series [16], the ED50 came to 0.35 mg/kg. The “pKmcs (COOH)” value in series [9] is 5.0. In series [9], the “pKmcs (NH2)” value stood at 6.9.
Consider `N[C@H]1C(=O)N[C@@H]2Cc3ccc(c(Cl)c3)Oc3cc4cc(c3O)Oc3ccc(cc3Cl)[C@@H](O)[C@@H]3NC(=O)[C@H](NC(=O)[C@@H]4NC(=O)[C@@H](NC2=O)c2cc(O)cc(c2)Oc2cc1ccc2O)c1ccc(O)c(c1)-c1c(O)cc(O)cc1[C@@H](C(=O)O)NC3=O` [deglucoteicoplanin, reference compound], for which, in series [9], the “pKmcs (COOH)” value amounted to 4.9 and the “pKmcs (NH2)” value came to 6.9.
teicoplanin [reference compound]: the MIC in [10] came to 0.125 µg/mL; in series [11] it was 0.5 µg/mL; in series [12], 4 µg/mL; in series [13] it was 0.25 µg/mL; in series [14] it was 0.25 µg/mL; in series [15], 2 µg/mL.
Regarding `NC1C(=O)NC2Cc3ccc(c(Cl)c3)Oc3cc4cc(c3O)Oc3ccc(cc3Cl)CC3=NC(=O)C(NC(=O)C4NC(=O)C(NC2=O)c2cc(O)cc(c2)Oc2cc1ccc2O)c1ccc(O)c(c1)-c1c(O[C@H]2O[C@H](CO)[C@@H](O)[C@H](O)[C@@H]2O)cc(O)cc1C(C(=O)O)NC3=O` (stereo partly drawn) [Compound II, 42-α-D-mannosyl-35,52-didehydro-34-deoxy-teicoplanin aglycon], the MIC in [1] is greater than 128 µg/mL; in [2], greater than 128 µg/mL; in [3], 0.25 µg/mL (≈ 0.186 µM); in series [4], 0.25 µg/mL (≈ 0.186 µM); in [5] it was 0.5 µg/mL (≈ 0.372 µM); in series [6] it was 1 µg/mL (≈ 0.745 µM). Moreover, the MIC in series [7] and in [8] was 2 µg/mL (≈ 1.49 µM) throughout. The molecule further registered an ED50 in series [16] of 5.8 mg/kg. Moreover, the “pKmcs (COOH)” value in [9] came out at 4.8. The “pKmcs (NH2)” value in series [9] is 6.9.
As for `NC1C(=O)NC2Cc3ccc(c(Cl)c3)Oc3cc4cc(c3O)Oc3ccc(cc3Cl)C=C3NC(=O)C(NC(=O)C4NC(=O)C(NC2=O)c2cc(O)cc(c2)Oc2cc1ccc2O)c1ccc(O)c(c1)-c1c(O)cc(O)cc1C(C(=O)O)NC3=O` (single isomer, unassigned) [Compound V, (36,37-trans-51,52-trans)-34,35-didehydro-34-deoxy-teicoplanin-aglycon], the MIC was greater than 128 µg/mL in [1]; greater than 128 µg/mL in [2]; 2 µg/mL (≈ 1.69 µM) in [3]; 4 µg/mL (≈ 3.39 µM) in series [4]; 0.4 µg/mL (≈ 0.339 µM) in [5]; 16 µg/mL (≈ 13.5 µM) in [6]. Besides, the MIC in [7] and in [8] was 8 µg/mL (≈ 6.77 µM) throughout.
